Data set [1] is described as follows: physchem.
For data set [2], the system named is Escherichia coli. In words: microbe, parasite or virus in culture. Particulars: ATTC 25922, 192 h.
Data set [3] deals with Mycobacterium tuberculosis. In words: microbe, parasite or virus in culture. The settings on record: H37Rv, 192 h.
Description: Antibacterial activity against Mycobacterium tuberculosis H37Rv assessed as inhibition of bacterial growth measured after 8 days by Alamar blue reagent based broth microdilution method
Data set [4] deals with Mycobacterium tuberculosis. In words: microbe, parasite or virus in culture. Particulars: H37Rv, 264 h.
Description: Antibacterial activity against wild type Mycobacterium tuberculosis H37Rv assessed as inhibition of bacterial growth incubated for 11 days
Data set [5] relates to Mycobacterium tuberculosis. In words: microbe, parasite or virus in culture. The settings on record: H37Rv, 264 h. The source holds these as a separate data set.
Description: Antibacterial activity against Mycobacterium tuberculosis H37Rv gyrA -FDASTetON-1 hypomorph assessed as inhibition of bacterial growth incubated for 11 days
Data set [6] deals with DNA gyrase subunit A/DNA gyrase subunit B (Mycobacterium tuberculosis (strain ATCC 25618 / H37Rv), UniProt P9WG45+P9WG47). In words: Inhibition of Mycobacterium tuberculosis H37Rv DNA gyrase.
The test system of data set [7] is Staphylococcus aureus. The experiment in a line: microbe, parasite or virus in culture. The settings on record: ATTC 25923, 192 h.
Data set [8] deals with DNA gyrase (Staphylococcus aureus, UniProt P0A0K8+P20831).

We go through three compounds from ChEMBL document CHEMBL5154899, “Spiropyrimidinetrione DNA Gyrase Inhibitors with Potent and Selective Antituberculosis Activity” (J Med Chem, 2022).

In general, kinetic solubility refers to the concentration staying in solution when a stock, usually in DMSO, is diluted into the medium. A word on the pIC50: it is the negative decadic logarithm of the IC50, by convention in mol/L. Read a low pIC50 as a large IC50.

pIC50: −log10 of the molar value. Values after ≈ are worked out from the molar mass of the structure shown.

DNA gyrase subunit A/DNA gyrase subunit B, sequence (P9WG45 whole entry): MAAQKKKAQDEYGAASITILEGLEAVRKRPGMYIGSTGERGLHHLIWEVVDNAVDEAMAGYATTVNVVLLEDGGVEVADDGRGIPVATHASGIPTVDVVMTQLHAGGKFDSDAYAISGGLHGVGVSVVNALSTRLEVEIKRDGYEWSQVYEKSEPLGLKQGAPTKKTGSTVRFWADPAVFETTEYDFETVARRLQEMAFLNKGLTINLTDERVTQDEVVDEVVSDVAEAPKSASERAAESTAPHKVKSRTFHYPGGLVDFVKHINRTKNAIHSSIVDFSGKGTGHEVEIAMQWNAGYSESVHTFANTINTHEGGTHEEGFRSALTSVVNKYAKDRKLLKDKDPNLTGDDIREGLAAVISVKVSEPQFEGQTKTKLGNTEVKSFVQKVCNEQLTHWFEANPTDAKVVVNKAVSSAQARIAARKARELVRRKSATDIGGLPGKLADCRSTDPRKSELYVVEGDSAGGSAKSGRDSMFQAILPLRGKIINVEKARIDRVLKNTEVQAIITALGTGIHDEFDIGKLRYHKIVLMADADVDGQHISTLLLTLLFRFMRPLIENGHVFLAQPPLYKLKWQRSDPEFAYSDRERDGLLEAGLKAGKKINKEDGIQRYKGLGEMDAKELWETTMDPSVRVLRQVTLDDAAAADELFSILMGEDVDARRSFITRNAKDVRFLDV
DNA gyrase subunit A/DNA gyrase subunit B, sequence (P9WG47 whole entry): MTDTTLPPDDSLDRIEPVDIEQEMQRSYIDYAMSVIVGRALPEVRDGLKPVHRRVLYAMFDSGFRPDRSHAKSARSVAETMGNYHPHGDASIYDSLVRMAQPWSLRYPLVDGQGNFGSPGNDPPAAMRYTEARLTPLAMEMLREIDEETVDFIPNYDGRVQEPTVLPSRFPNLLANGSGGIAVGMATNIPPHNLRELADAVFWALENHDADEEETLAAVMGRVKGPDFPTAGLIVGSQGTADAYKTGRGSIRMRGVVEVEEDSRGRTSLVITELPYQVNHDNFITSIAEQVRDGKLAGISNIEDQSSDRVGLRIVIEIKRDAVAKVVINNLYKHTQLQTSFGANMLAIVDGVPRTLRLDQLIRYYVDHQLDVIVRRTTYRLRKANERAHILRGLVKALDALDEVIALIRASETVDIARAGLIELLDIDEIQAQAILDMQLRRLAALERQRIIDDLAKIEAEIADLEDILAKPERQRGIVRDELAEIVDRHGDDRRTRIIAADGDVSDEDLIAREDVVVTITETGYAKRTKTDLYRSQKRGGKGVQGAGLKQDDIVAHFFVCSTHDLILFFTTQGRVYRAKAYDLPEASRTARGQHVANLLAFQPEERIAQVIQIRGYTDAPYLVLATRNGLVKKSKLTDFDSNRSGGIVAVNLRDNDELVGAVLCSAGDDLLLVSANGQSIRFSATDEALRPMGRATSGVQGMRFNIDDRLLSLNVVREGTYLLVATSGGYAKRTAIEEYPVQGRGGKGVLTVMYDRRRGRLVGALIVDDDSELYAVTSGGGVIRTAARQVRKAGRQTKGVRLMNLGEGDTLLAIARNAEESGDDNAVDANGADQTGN
DNA gyrase, sequence (P0A0K8 whole entry): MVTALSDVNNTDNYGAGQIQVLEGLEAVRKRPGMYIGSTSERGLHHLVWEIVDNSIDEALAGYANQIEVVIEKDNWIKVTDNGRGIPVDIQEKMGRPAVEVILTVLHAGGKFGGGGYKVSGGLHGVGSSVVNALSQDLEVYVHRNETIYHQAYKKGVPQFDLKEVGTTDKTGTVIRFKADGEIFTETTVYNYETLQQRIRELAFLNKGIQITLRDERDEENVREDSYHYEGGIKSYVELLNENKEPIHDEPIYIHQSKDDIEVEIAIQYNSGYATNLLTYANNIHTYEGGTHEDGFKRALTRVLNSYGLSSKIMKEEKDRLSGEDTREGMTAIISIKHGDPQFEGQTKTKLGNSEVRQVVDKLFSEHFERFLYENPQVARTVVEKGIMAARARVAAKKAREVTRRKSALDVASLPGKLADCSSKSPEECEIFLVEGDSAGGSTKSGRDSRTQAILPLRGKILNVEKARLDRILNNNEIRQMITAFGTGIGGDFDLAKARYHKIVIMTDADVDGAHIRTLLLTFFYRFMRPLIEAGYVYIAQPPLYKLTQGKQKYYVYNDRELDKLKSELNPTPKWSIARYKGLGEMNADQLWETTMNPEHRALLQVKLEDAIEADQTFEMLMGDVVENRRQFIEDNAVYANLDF
DNA gyrase, sequence (P20831 whole entry): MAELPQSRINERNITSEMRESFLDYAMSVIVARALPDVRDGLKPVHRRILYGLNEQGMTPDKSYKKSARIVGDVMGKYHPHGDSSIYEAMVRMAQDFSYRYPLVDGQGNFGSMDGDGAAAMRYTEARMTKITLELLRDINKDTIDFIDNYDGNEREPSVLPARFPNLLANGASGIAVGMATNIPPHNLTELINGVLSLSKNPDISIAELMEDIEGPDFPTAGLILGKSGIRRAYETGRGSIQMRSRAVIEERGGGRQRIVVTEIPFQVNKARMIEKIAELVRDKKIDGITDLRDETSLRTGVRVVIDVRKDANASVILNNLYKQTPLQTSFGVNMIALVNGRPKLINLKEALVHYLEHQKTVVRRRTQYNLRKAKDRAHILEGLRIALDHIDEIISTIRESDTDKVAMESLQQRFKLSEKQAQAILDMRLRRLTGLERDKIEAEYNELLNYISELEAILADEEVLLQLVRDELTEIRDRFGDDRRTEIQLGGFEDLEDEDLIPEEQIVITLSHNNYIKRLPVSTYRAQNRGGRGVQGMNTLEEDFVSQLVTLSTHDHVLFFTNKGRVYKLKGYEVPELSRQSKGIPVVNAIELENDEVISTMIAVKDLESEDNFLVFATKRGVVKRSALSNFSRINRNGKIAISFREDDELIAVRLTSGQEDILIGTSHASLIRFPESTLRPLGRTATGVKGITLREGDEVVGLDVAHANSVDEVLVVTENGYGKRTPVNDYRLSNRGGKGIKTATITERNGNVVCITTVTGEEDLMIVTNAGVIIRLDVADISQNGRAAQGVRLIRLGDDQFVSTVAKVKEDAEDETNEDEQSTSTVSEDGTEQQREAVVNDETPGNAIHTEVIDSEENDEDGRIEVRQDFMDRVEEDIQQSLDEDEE

In turn, `C[C@@H]1CN2c3c(cc4c(N5C(=O)OC[C@@H]5C)noc4c3F)CC3(C(=O)NC(=O)NC3=O)[C@H]2[C@H](C)O1` [ZOLIFLODACIN] had a solubility (kinetic) at 20 h, 200 µM in data set [1] of 160 µM (≈ 78 µg/mL). Further, the figures for the MIC in data set [2] and in data set [3] were 1.4 µM (≈ 0.682 µg/mL) and 0.35 µM (≈ 0.171 µg/mL), respectively. Also, the values for the MIC50 in data set [4] and in data set [5] were 20 µM (≈ 9.75 µg/mL) and 4.6 µM (≈ 2.24 µg/mL), respectively. The MIC99 is 44 µM (≈ 21.4 µg/mL) in data set [4] and 12 µM (≈ 5.85 µg/mL) in data set [5].

With `C[C@@H]1CN2c3c(cc4c(N5C[C@@H](O)[C@H](O)C5)noc4c3F)CC3(C(=O)NC(=O)NC3=O)[C@H]2[C@H](C)O1`, the pIC50 was 4.80 in data set [6] and 5.18 in data set [8]. Moreover, the MIC in data set [7] is above 125 µM; in data set [3], 5.9 µM (≈ 2.89 µg/mL). Moreover, the MIC50 was determined as 3.65 µM (≈ 1.79 µg/mL) in data set [4] and 1.24 µM (≈ 0.607 µg/mL) in data set [5]. Also, the MIC99 in data set [4] stood at 6.75 µM (≈ 3.3 µg/mL); in data set [5], 3.2 µM (≈ 1.57 µg/mL).

On to `C[C@@H]1CN2c3c(cc4c(N5CC[C@H](O)C5)noc4c3F)CC3(C(=O)NC(=O)NC3=O)[C@H]2[C@H](C)O1`, for which the results for the negative logarithm of the IC50 (pIC50) in data set [6] and in data set [8] were 4.70 and 5.16, respectively. Further, the results for the MIC in data set [7], in data set [2] and in data set [3] were 64 µM (≈ 30.3 µg/mL), above 125 µM and 5.9 µM (≈ 2.79 µg/mL), respectively. Also, the values for the MIC50 in data set [4] and in data set [5] were 3.3 µM (≈ 1.56 µg/mL) and 0.92 µM (≈ 0.436 µg/mL), respectively. The MIC99 in data set [4] is 5.9 µM (≈ 2.79 µg/mL); in data set [5] it was 2.4 µM (≈ 1.14 µg/mL).
